The source of these data is publication PMC8667898, “Topo II inhibition and DNA intercalation by new phthalazine-based derivatives as potent anticancer agents: design, synthesis, anti-proliferative, docking, and in vivo studies” (Journal of Enzyme Inhibition and Medicinal Chemistry, 2021).

Series [1] relates to HepG-2 cells (hepatocellular carcinoma). Briefly: MTT anti-proliferative assay, HepG-2. Particulars: for IC50: mean ± SD of three separate experiments, read-out: In vitro Cytotoxicity IC50 HepG-2. It counts as cell-based, human. The protocol:
Anti-proliferative activities of the target compounds were assessed via the standard MTT method[38–40] against three cancer cell lines, namely, hepatocellular carcinoma (HepG-2), colorectal carcinoma (HCT-116), and human breast adenocarcinoma (MCF-7).
(§1) Anti-proliferative activity of the synthesised compounds was estimated using the MTT assay protocol[8]^,[38–40] as shown in Supplementary data.
(§2) 4.2.1. In vitro anti-proliferative activity against MCF-7, HepG-2 and HCT-116 The cells were cultured in RPMI-1640 medium supplemented with 10% fetal bovine serum (FBS), penicillin (100 unit /mL) and streptomycin sulphate (100µg/mL) at 37 °C in a 5% CO2 incubator.
(§3) Then, cells were dropped in 96-well plates at a density of 3-8 × 10^3 cells/well and incubated for two days in a 5% CO2 incubator at 37 °C. Then, the cells were treated with the synthesized compounds and the cell cultures were continued incubated for 24 h. However, Different concentrations of the compound under test (0.0, 5.0, 12.5, 25.0 and 50 mg/ml) were added to the cell monolayer. Then, (3-[4,5-dimethylthiazol-2-yl]- 2,5-diphenyltetrazolium bromide) MTT solution (20 µl, 5mg/mL) was added to each well and incubated for additional 4 h. The formed purple crystals of MTT-formazan were dissolved in 100 µl DMSO each well; the absorbance of each well was measured at 570 nm using a plate reader (EXL 800, USA). All of the compounds were tested three times. The relative cell viability in percentage was calculated.
(§4) The data represented the mean of three independent experiments in triplicate and were expressed as means ± SD. […]
(Tetrazolium dyes change colour on reduction, which living cells bring about.)

Series [2] has as its system HCT-116 cells (colorectal carcinoma). Put plainly: MTT anti-proliferative assay, HCT-116. Particulars: for IC50: mean ± SD of three separate experiments, read-out: In vitro Cytotoxicity IC50 HCT-116. It counts as cell-based, human. On the procedure: (§5) Anti-proliferative activities of the target compounds were assessed via the standard MTT method[38–40] against three cancer cell lines, namely, hepatocellular carcinoma (HepG-2), colorectal carcinoma (HCT-116), and human breast adenocarcinoma (MCF-7). Doxorubicin was used in this test as a positive control.
as §1, §2
as §3, with “calculated. The results for IC50 values of the active compounds are […]” for “calculated.”
as §4
(§6) of the cells could survive. […]

The test system of series [3] is MCF-7 cells (human breast adenocarcinoma). Put plainly: MTT anti-proliferative assay, MCF-7. In kind it is cell-based. Particulars: for IC50: mean ± SD of three separate experiments, read-out: In vitro Cytotoxicity IC50 MCF-7. The protocol:
as §5, §1, §2
as §3, with “calculated. The results for IC50 values of the active compounds are […]” for “calculated.”
as §4, §6

Series [4] deals with Calf thymus DNA. Put plainly: DNA intercalation assay (DNA/methyl green colorimetric assay). It counts as binding. Particulars: three independent experiments. The protocol: as §4
4.2.2. DNA intercalation assay (DNA/methyl green colorimetric assay)
Affinity of some compounds for DNA-binding was examined in vitro using DNA/methyl green assay using doxorubicin as a positive control. In this test, a mixture of methyl green (20 mg) and Calf thymus DNA (10 mg) (Sigma– Aldrich) were suspended in 0.05 M TrisHCl buffer (100 mL, pH 7.5) containing 7.5 mM MgSO4. This mixture was stirred continuously for 24 h at 37 °C. Then, ethanolic solution of the test compounds was pitted into the wells of a 96-well microtiter tray at a concentration of 10, 100 and 1000 µM. The excess solvent was removed from each well under vacuum, with subsequent addition of 200 µL of the DNA/methyl green solution. The test samples were incubated for 24 h in dark at ambient temperature. After that, absorbance of each sample was determined at 642.5–645 nm. In this test, the methyl green dye reversibly binds to DNA to form persistent colored complex of DNA/methyl green. This color still stables at neutral pH. When the DNA intercalators were added, the methyl green was displaced from DNA with addition of H2O molecule to the dye resulting in formation of the colorless carbinol leading to a decrease in spectrophotometric absorbance. ΔA value (the difference between DNA/methyl green complex and free cabinol) provides the simplest means for detecting the DNA-binding affinity and relative binding strength. IC50′s were determined by linear regression of data plotted on a semi -log scale and the data were compared with doxorubicin as standard DNA intercalator . […]

For series [5], the target named is T1, human Topo II (Homo sapiens, UniProt P11388).
T1 construct: purchased TopoGEN, Inc., Columbus
T1 sequence (P11388 whole entry): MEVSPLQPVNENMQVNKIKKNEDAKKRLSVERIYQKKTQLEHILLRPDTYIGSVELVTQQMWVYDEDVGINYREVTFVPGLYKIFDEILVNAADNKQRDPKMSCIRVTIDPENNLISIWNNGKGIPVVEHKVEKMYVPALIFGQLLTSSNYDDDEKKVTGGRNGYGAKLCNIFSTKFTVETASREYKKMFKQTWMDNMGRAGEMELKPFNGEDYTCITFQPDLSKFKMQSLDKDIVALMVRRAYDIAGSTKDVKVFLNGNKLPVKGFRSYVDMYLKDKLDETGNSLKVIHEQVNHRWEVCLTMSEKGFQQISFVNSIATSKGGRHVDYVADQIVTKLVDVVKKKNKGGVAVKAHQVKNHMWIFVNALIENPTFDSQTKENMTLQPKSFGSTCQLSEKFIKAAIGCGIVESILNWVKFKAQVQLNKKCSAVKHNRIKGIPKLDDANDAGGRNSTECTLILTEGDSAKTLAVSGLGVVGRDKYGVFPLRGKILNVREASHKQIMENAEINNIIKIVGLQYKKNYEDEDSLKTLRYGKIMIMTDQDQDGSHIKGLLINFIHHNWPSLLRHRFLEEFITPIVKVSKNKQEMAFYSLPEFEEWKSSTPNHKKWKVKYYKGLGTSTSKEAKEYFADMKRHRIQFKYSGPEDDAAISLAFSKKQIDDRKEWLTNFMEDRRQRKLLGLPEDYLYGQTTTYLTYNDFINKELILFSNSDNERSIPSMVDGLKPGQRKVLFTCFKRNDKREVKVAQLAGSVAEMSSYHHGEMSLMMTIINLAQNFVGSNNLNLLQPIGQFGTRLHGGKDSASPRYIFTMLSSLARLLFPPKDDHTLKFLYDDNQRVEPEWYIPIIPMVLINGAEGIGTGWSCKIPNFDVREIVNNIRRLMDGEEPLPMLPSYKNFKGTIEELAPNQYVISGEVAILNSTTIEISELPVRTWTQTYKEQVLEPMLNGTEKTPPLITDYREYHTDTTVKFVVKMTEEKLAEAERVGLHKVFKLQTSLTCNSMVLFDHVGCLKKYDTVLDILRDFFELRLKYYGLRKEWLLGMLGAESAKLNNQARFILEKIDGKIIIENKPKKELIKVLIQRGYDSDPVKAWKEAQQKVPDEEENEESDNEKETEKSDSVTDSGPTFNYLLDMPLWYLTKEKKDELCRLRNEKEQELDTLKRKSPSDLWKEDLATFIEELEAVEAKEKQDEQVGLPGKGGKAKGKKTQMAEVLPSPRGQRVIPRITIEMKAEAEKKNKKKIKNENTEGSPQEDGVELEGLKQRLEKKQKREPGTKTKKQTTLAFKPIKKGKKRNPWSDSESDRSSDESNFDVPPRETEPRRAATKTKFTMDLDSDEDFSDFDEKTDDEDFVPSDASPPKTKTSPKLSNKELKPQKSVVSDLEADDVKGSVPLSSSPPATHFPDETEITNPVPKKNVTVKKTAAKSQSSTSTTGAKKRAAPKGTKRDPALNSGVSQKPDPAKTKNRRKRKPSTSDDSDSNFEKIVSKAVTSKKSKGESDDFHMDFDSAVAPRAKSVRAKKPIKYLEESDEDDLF
Briefly: Topoisomerase II inhibitory activity (TopoGEN drug screening kit). In kind it is biochemical. Particulars: three independent experiments. The protocol:
The activity of topoisomerase II was determined according to the reported procedure described by Patra et al.[42]. […]
4.2.3. Measurement of topoisomerase II activity
Compounds (8a, 8b, 9a, 9c, 9d, 12a, and 12b) were further evaluated to assess their Topo II inhibitory activities. In this test, Topo II drug screening kit (TopoGEN, Inc., Columbus) was utilized to determine the Topo II activity. […] A typical enzyme […]
reaction contained a mixture of human Topo II (2 µL), substrate super coiled pHot1 DNA (0.25 µg), 50 µg/mL test compound (2 µL), and assay buffer (4 µL). The reaction started upon incubation of the mixture in 37 °C for 30 min. The reaction was terminated by addition of 10% sodium dodecylsulphate (2 µL) and proteinase K (50 µg/mL) at 37 °C for 15 min. followed by incubation for 15 min at 37 °C.
Then, the DNA was run on 1% agarose gel in BioRad gel electrophoresis system for 1–2 h followed by staining with GelRedTM stain for 2 h and destained for 15 min with TAE buffer. The gel was imaged Via BioRad’s Gel DocTMEZ system. Both supercoiled and linear strands DNA were incorporated in the gel as markers for DNA-Topo II intercalators. The results of IC50 values were calculated using the GraphPad Prism version 5.0. Each reaction was performed in duplicate, and at least three independent determinations of each IC50 were made.

The mark [6] stands for this setting: ratio of IC50 values vs doxorubicin.

Like-named read-outs stand apart in the source and are kept apart here.

For orientation: IC50 means the concentration needed to halve the response being measured. Turning to `CCCc1nnc2c3ccccc3c3nnc(SCC(=O)Nc4ccc(C(=O)O)cc4)n3n12` [Compound 14a, 4-[2-((6-Propylbis([1,2, 4]triazolo)[3,4-a:4',3'-c]phthalazin-3-yl)thio)acetamido]benzoic acid], the IC50 in series [1] (Homo sapiens, HepG2, MTT) was 5.65 ± 0.25 µM; in series [2] (Homo sapiens, HCT-116, MTT), 4.35 ± 0.19 µM; in series [3] (Homo sapiens, MCF7, MTT), 4.36 ± 0.2 µM; in series [4] it was 28.7 ± 1.71 µM; in series [5] it was 7.64 ± 0.66 µM. In addition, the “times more active than doxorubicin, HepG2” value in series [1] (setting [6]) is “about 1.46 times”. Besides, in series [2] (setting [6]), the “times more active than doxorubicin, HCT-116” value was approximately 2.28 times. Also, the “times more active than doxorubicin, MCF-7” value in series [3] (setting [6]) was approximately 1.75 times.

`CCCc1nnc2c3ccccc3c(NNC(=O)NC3CCCCC3)nn12` [Compound 7a, N-Cyclohexyl-2–(3-propyl-[1,2, 4]triazolo[3,4-a]phthalazin-6-yl)hydrazine-1-carboxamide]: the IC50 in series [1] (Homo sapiens, HepG2, MTT) was determined as 24.9 ± 0.8 µM; in series [2] (Homo sapiens, HCT-116, MTT) it was 23.8 ± 0.81 µM; in series [3] (Homo sapiens, MCF7, MTT), 19.4 ± 0.62 µM; in series [4], 37.1 ± 2 µM.

With `CCCc1nnc2c3ccccc3c3nnc(SCC(N)=O)n3n12` [Compound 15, 2-[(6-Propylbis([1,2, 4]triazolo)[3,4-a:4',3'-c]phthalazin-3-yl)thio]acetamide], the IC50 in series [1] (Homo sapiens, HepG2, MTT) came out at 38.6 ± 1 µM; in series [2] (Homo sapiens, HCT-116, MTT), 53.5 ± 1.55 µM; in series [3] (Homo sapiens, MCF7, MTT), 26.2 ± 0.77 µM; in series [4] it was 71.2 ± 3.11 µM.

On to `CCCc1nnc2c3ccccc3c3nnc(SCC(=O)Nc4ccc([N+](=O)[O-])cc4)n3n12` [Compound 14b, N-(4-Nitrophenyl)-2-[(6-propylbis([1,2, 4]triazolo)[3,4-a:4',3'-c]phthalazin-3-yl)thio]acetamide], for which the IC50 in series [1] (Homo sapiens, HepG2, MTT) was 10.9 to 14.9 µM; in series [1] (MTT) it was 13.4 ± 0.4 µM; in series [2] (Homo sapiens, HCT-116, MTT) it was 10.9 to 14.9 µM; in series [2] (MTT), 12.6 ± 0.45 µM; in series [3] (Homo sapiens, MCF7, MTT), 10.9 to 14.9 µM; in series [3] (MTT) it was 14.9 ± 0.55 µM. Further, the results for the IC50 in series [4] and in series [5] were 34.4 ± 2.8 µM and 13.7 ± 1.02 µM, respectively.

On to `CCCc1nnc2c3ccccc3c(NNC(=O)Nc3ccccc3)nn12` [Compound 7b, N-Phenyl-2–(3-propyl-[1,2, 4]triazolo[3,4-a]phthalazin-6-yl)hydrazine-1-carboxamide], for which the IC50 in series [1] (Homo sapiens, HepG2, MTT) is 45 ± 1.1 µM; in series [2] (Homo sapiens, HCT-116, MTT), 48.6 ± 1.6 µM; in series [3] (Homo sapiens, MCF7, MTT), 50.7 ± 1.55 µM; in series [4], 36.6 ± 1.82 µM.

`CCCc1nnc2c3ccccc3c(NNC(=S)NC3CCCCC3)nn12` [Compound 8b, N-Cyclohexyl-2–(3-propyl-[1,2, 4]triazolo[3,4-a]phthalazin-6-yl)hydrazine-1-carbothioamide]: the IC50 was 10.9 to 14.9 µM in series [1] (Homo sapiens, HepG2, MTT); 10.9 ± 0.34 µM in series [1] (MTT); 10.9 to 14.9 µM in series [2] (Homo sapiens, HCT-116, MTT); 13.8 ± 0.44 µM in series [2] (MTT); 10.9 to 14.9 µM in series [3] (Homo sapiens, MCF7, MTT); 12.5 ± 0.32 µM in series [3] (MTT). Also, the IC50 turned out to be 34.6 ± 1.1 µM in series [4] and 8.91 ± 0.77 µM in series [5].

For the molecule `CCCc1nnc2c3ccccc3c3nnc(SCC(=O)Nc4ccc(S(N)(=O)=O)cc4)n3n12` [Compound 14c, 2-[(6-Propylbis([1,2, 4]triazolo)[3,4-a:4',3'-c]phthalazin-3-yl)thio]-N-(4-sulfamoyl-phenyl)acetamide], the IC50 in series [1] (Homo sapiens, HepG2, MTT) worked out at 24.8 ± 0.88 µM; in series [2] (Homo sapiens, HCT-116, MTT), 30.99 ± 0.11 µM; in series [3] (Homo sapiens, MCF7, MTT) it was 20.6 ± 0.88 µM; in series [4], 46.3 ± 2.3 µM.

With `CCCc1nnc2c3ccccc3c(NNC(=S)NCC)nn12` [Compound 8a, N-Ethyl-2–(3-propyl-[1,2, 4]triazolo[3,4-a]phthalazin-6-yl)hydrazine-1-carbothioamide], the IC50 in series [1] (Homo sapiens, HepG2, MTT) was found to be 28.9 ± 0.67 µM; in series [2] (Homo sapiens, HCT-116, MTT) it was 25 ± 0.7 µM; in series [3] (Homo sapiens, MCF7, MTT), 16.5 ± 0.43 µM; in series [4], 29.6 ± 1.41 µM; in series [5] it was 22.3 ± 2 µM.

Take `CCCc1nnc2c3ccccc3c(NN=Cc3ccc(F)cc3)nn12` [Compound 9b, 6-[2–(4-Fluorobenzylidene)hydrazineyl]-3-propyl-[1,2, 4]triazolo[3,4-a]phthalazine]: the IC50 in series [1] (Homo sapiens, HepG2, MTT) was found to be 63.9 ± 1.02 µM; in series [2] (Homo sapiens, HCT-116, MTT), 61.7 ± 1.89 µM; in series [3] (Homo sapiens, MCF7, MTT) it was 36 ± 0.98 µM; in series [4], 49.9 ± 2.53 µM.

On to `CCCc1nnc2c3ccccc3c(NN=Cc3ccc(O)cc3)nn12` [Compound 9c, 4-[(2–(3-Propyl-[1,2, 4]triazolo[3,4-a]phthalazin-6-yl)hydrazineylidene)methyl]-phenol], for which the IC50 in series [1] (Homo sapiens, HepG2, MTT) was determined as 56.3 ± 1.73 µM; in series [2] (Homo sapiens, HCT-116, MTT), 78.5 ± 2.04 µM; in series [3] (Homo sapiens, MCF7, MTT) it was 57.8 ± 1.56 µM; in series [5], 21.4 ± 1.9 µM.

`CCCc1nnc2c3ccccc3c(NN=Cc3ccc(Cl)cc3)nn12` [Compound 9a, 6-[2–(4-Chlorobenzylidene)hydrazineyl]-3-propyl-[1,2, 4]triazolo[3,4-a]phthalazine]: the IC50 was 25.2 ± 0.7 µM in series [1] (Homo sapiens, HepG2, MTT); 36.3 ± 1.1 µM in series [2] (Homo sapiens, HCT-116, MTT); 45.5 ± 1.22 µM in series [3] (Homo sapiens, MCF7, MTT); 43.8 ± 2.22 µM in series [4]; 13.7 µM in series [5].
